Data on 103 molecules can be found in PubChem BioAssay AID608 (Sanford-Burnham Center for Chemical Genomics, 2007).

Structures are written as SMILES. Active and inactive are the calls of the source. How the calls were made is not given here.

Sequence of Peptidyl-prolyl cis-trans isomerase FKBP1A (Homo sapiens) (P62942 whole entry, looked up): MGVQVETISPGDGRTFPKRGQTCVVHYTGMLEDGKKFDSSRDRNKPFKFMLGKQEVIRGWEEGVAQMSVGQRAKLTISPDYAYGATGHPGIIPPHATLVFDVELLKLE

This test has as its target Peptidyl-prolyl cis-trans isomerase FKBP1A (Homo sapiens) (UniProt P62942). Kind of test: FKBP12 binders, biophysical, NMR detection (AID 608). Particulars: NMR binding, purified FKBP12.
The Kd is the equilibrium constant for the complex coming apart. Regarding `CCN(CC)C(=O)c1n[nH]c(=O)c2ccccc12`, the Kd is > 4 mM (inactive).
For `Nc1ccc(F)cc1F` the value was > 4 mM (inactive); for `Cc1nnc2ccc(N3CCCC3)nn12`, > 4 mM (inactive); for `C[C@]12CCC3C(CC[C@]4(O)C[C@@H](O)CC[C@]34C=O)[C@@]1(O)CCC2C1=CC(=O)OC1` (stereo partly drawn), > 4 mM (inactive).
Next, `Cc1nc(-c2ccccc2)sc1CO`: > 4 mM (inactive).
For `N=c1n(N)c2ccccc2n1CCO` the value was > 4 mM (inactive); for `c1ccc(CCc2nc(-c3ccccn3)no2)cc1`, > 4 mM (inactive); for `CC(=O)O[C@]1(C)CC[C@@]23CC1C(C)(C)[C@@H]2CC[C@H]3C`, > 4 mM (inactive).
As for `O=S(=O)(N1CCCCC1)n1c(Cc2ccccc2)nc2ccccc21`, the Kd is > 4 mM (inactive).
Next, `CC(=O)Nc1cccc(-c2nnc(-c3ccccc3)o2)c1`: > 4 mM (inactive); `O=C(O)/C=C1\NC(=O)c2ccccc21`: > 4 mM (inactive); `CNC(=O)c1ccccc1-c1ccccc1`: > 4 mM (inactive).
For `Cn1c(=O)[nH]c(=O)c2nsnc21` the value was > 4 mM (inactive); for `COc1cc(C(=S)N2CCCC2)cc(Cl)c1O`, > 4 mM (inactive); for `O=C(Cn1cnc2ccccc2c1=O)N1CCOCC1`, > 4 mM (inactive).
Next, `CCn1ncc(Cl)c1C(=O)Nc1ccncc1`: > 4 mM (inactive); `C[n+]1cc2c3c(ccc2c2ccc4cc5c(cc4c21)OCO5)OCO3`: > 4 mM (inactive); `COc1c2occc2c(OC)c2c(=O)cc(C)oc12`: > 4 mM (inactive).
With `O=C(c1ccccc1)N1CCOCC1`, the Kd is > 4 mM (inactive).
In the case of `CCNC(=O)CC1Nc2ccccc2NC1=O` (stereo not drawn), the Kd is > 4 mM (inactive).
Next, `O=C(Nc1ccccc1C(F)(F)F)c1cnccn1`: > 4 mM (inactive).
For the molecule `O=C1NC(=S)N/C1=C/c1ccsc1`, the Kd was > 4 mM (inactive).
For `C[C@@H]1CC[C@@]2(OC1)OC1CC3C4CC=C5C[C@@H](O)CC[C@]5(C)C4CC[C@]3(C)C1[C@@H]2C` (stereo partly drawn) the value was > 4 mM (inactive); for `CCN(CC)S(=O)(=O)c1cccc2nsnc12`, > 4 mM (inactive); for `CCOC(=O)C1CCN(Cc2ccccc2)CC1=O` (stereo not drawn), > 4 mM (inactive).
Next, `O=C(Cc1c(F)cccc1Cl)Nc1ccon1`: > 4 mM (inactive); `CC(C)[C@@H]1CC[C@@H](C)CC1=O`: > 4 mM (inactive); `CC(=O)NC(c1ccccc1)c1cccnc1` (stereo not drawn): > 4 mM (inactive).
For `O=C(Nc1ccccc1C(F)(F)F)N1CCCCCC1` the value was > 4 mM (inactive); for `Nc1ccc2c(c1)CCCC2=O`, > 4 mM (inactive).
In the case of `CCc1ccccc1OCc1nnc(N)s1`, the Kd was > 4 mM (inactive).
With `COc1ccc(NS(=O)(=O)N2CCOCC2)cc1`, the Kd was > 4 mM (inactive).
Next, `COc1cc2c(cc1OC)-c1nnnn1C(C)(C)C2`: > 4 mM (inactive); `O=C(Nc1ccc(-c2nnco2)cc1)c1ccccc1`: > 4 mM (inactive).
Next, `CC(C)(C)C(=O)N1CCCC1C(=O)O` (stereo not drawn): > 4 mM (inactive); `O=c1[nH]oc2ccccc12`: > 4 mM (inactive).
For `NCc1oc(-c2ccccc2)cc1C(=O)O` the value was > 4 mM (inactive); for `CC12CN([N+](=O)[O-])C3(C(N)=O)CC1CCC23C` (stereo not drawn), > 4 mM (inactive).
On to `O=C(c1ccco1)N1CCN(Cc2cccc(F)c2)CC1`, for which the Kd is > 4 mM (inactive).
For `CCOC(=O)c1c(C)nc2cc(C)ccn12` the value was > 4 mM (inactive).
Next, `CC(C)(C)C(=O)Nc1ncc(C(F)(F)F)cc1Cl`: > 4 mM (inactive).
Next, `CSc1cc(C)[nH]c(=O)n1`: > 4 mM (inactive); `O=C(Nc1ccccc1)Nc1ccccn1`: > 4 mM (inactive); `CN1C(CC(=O)c2ccccc2)CCCC1CC(O)c1ccccc1` (stereo not drawn): > 4 mM (inactive).
`Cc1ccc(/C=C/C(=O)O)cc1S(=O)(=O)NCCO`: the Kd was > 4 mM (inactive).
With `O=C1N=c2ccccc2=C1c1sc(=S)[nH]c1O`, the Kd is > 4 mM (inactive).
Next, `COc1ccc(Cc2nnc3c4cnn(C)c4ncn23)cc1`: > 4 mM (inactive).
Consider `CC1(C)NC(=O)N(CCOc2ccc3c(c2)CCC3)C1=O`, for which the Kd is > 4 mM (inactive).
For `Fc1ccc(F)c(CN2CCN(c3ncccn3)CC2)c1` the value was > 4 mM (inactive).
Next, `CN1C2CC3C[C@H]1C(O3)C2O` (stereo partly drawn): > 4 mM (inactive); `O=C1CC2OCC=C3CN4CC[C@]56c7ccccc7N1C5[C@H]2[C@H]3CC46` (stereo partly drawn): > 4 mM (inactive); `Cc1noc(-c2ccccc2)c1CO`: > 4 mM (inactive).
For `O=c1cc(-c2ccc(O)cc2)oc2cc(O[C@@H]3O[C@H](CO)[C@@H](O)[C@H](O)[C@H]3O[C@@H]3OC[C@](O)(CO)[C@H]3O)cc(O)c12` the value was > 4 mM (inactive); for `CC(=O)Nc1cccc(-c2nc3ccccc3c(=O)o2)c1`, > 4 mM (inactive).
`CC(=O)Nc1nc(C)nc(-c2ccccc2)c1C(C)=O`: the Kd was > 4 mM (inactive).
For `O=C(O[C@@H]1Cc2c(O)cc(O)cc2O[C@@H]1c1cc(O)c(O)c(O)c1)c1cc(O)c(O)c(O)c1` the value was > 4 mM (inactive); for `O=C(Cc1cccs1)N1CCOCC1`, > 4 mM (inactive); for `CCOC(=O)CC1Sc2ccccc2NC1=O` (stereo not drawn), > 4 mM (inactive).
For `CCc1c(C)n([O-])c2c([n+]1=O)CCC2` the value was > 4 mM (inactive); for `C=CCCCCCCCCCCCC(O)CC(O)COC(C)=O` (stereo not drawn), > 4 mM (inactive).
Next, `O=C1CCC(=O)N1c1nc2ccccc2s1`: > 4 mM (inactive); `CN=C(C)c1c(O)n(C)c(=S)n(C)c1=O`: > 4 mM (inactive); `CC(=O)O[C@H]1CCC2(C)C3=C(CCC2C1(C)C)[C@@]1(C)CC[C@@H](C(C)CCC=C(C)C)[C@]1(C)CC3` (stereo partly drawn): > 4 mM (inactive).
On to `Cc1nc(NCc2ccco2)nc2c1C(=O)CC(C)C2` (stereo not drawn), for which the Kd was > 4 mM (inactive).
For `Nc1cccc(OC(F)(F)F)c1` the value was > 4 mM (inactive); for `C[n+]1cccc(C(=O)[O-])c1`, > 4 mM (inactive).
Take `O=C(NCCCO)c1ccncc1`: the Kd was > 4 mM (inactive).
For `CC(=O)O[C@H]1CCC2(C)C3=C(CCC2C1(C)C)[C@]1(C)CCC(C(C)CCC=C(C)C)[C@@]1(C)CC3` (stereo partly drawn) the value was > 4 mM (inactive).
Next, `COc1ccc2nc(N)sc2n1`: > 4 mM (inactive).
For `CC(=O)c1ccc(Cc2cnc(N)s2)cc1` the value was > 4 mM (inactive).
Take `Cn1c(CN2CC(c3ccccc3)CC2=O)n[nH]c1=S` (stereo not drawn): the Kd was > 4 mM (inactive).
For `Nc1nc2c3ccccc3nc(Cc3ccccc3)n2n1` the value was > 4 mM (inactive); for `NC1=NC(=O)/C(=C\c2cccnc2)S1`, > 4 mM (inactive).
Regarding `Cc1nc2nc(COc3ccccc3)nn2c(C)c1Cl`, the Kd is > 4 mM (inactive).
Consider `COC(=O)c1c[nH]c2ccccc12`, for which the Kd was > 4 mM (inactive).
Next, `O=C(O)CCCCCCCCCCCCC1C=CCC1` (stereo not drawn): > 4 mM (inactive); `COc1c(C)c2c(c(O)c1C/C=C(\C)CCC(=O)O)C(=O)OC2`: > 4 mM (inactive); `CN1C2CC[C@@H]1CC(OC(=O)[C@H](CO)c1ccccc1)C2` (stereo partly drawn): > 4 mM (inactive).
For `CC(=O)NCc1nc2ccccc2[nH]1` the value was > 4 mM (inactive); for `O=C(Nc1ccccc1)NC1CCS(=O)(=O)C1` (stereo not drawn), > 4 mM (inactive).
Next, `CN(C)c1n[nH]c(=O)[nH]c1=O`: > 4 mM (inactive).
On to `CC(=O)C1CC[C@H]2C3CC[C@H]4C[C@H](O)CC[C@]4(C)C3CC[C@]12C` (stereo partly drawn), for which the Kd is > 4 mM (inactive).
Next, `CNC(=O)Cn1c(=O)n(C)c2ccccc21`: > 4 mM (inactive); `NC(=O)CSCc1c(Cl)cccc1Cl`: > 4 mM (inactive).
Next, `CC12CCC(O)CC1CCC1C2[C@H](O)CC2(C)C(C3=CC(=O)OC3)CCC12O` (stereo partly drawn): > 4 mM (inactive); `Cc1onc(-c2ccccc2)c1CN`: > 4 mM (inactive); `CN(C)CCNC(CC(=O)Nc1ccccc1)C(=O)O` (stereo not drawn): > 4 mM (inactive).
For `CC(=O)Nc1cccs1` the value was > 4 mM (inactive).
For `CC(=O)c1c(C)n(O)c2ccc3nonc3c12`, the Kd was > 4 mM (inactive).
For `CC(=O)Nc1ccc(C(=O)NC2=NCCS2)cc1` the value was > 4 mM (inactive).
For `O=C1CCCC2C3CC(CN12)[C@@H]1CCCCN1C3` (stereo partly drawn) the value was > 4 mM (inactive); for `CC(NC(=O)c1cccnc1)c1ccc2c(c1)OCO2` (stereo not drawn), > 4 mM (inactive); for `Cc1cc(O)c(C)c(O)c1C(=O)O`, > 4 mM (inactive).
For `O=C1CCC(c2cccs2)=NN1` the value was > 4 mM (inactive); for `NC(CSCSCC(N)C(=O)O)C(=O)O` (stereo not drawn), > 4 mM (inactive).
On to `CCN1CCC(NC2CCC(O)CC2)CC1` (stereo not drawn), for which the Kd is > 4 mM (inactive).
For `O=S1(=O)NC(=NCc2ccccc2)c2ccccc21` the value was > 4 mM (inactive); for `COc1cccc(-c2nc3ccc(O)cc3c(=O)o2)c1`, > 4 mM (inactive).
For `Cc1cc(C)n(-c2nc(C)nc(N)n2)n1` the value was > 4 mM (inactive).
For `CSc1ccc(S(=O)(=O)N2CCCC2)cc1` the value was > 4 mM (inactive); for `O=C1CSC(=Nc2cccc(C(=O)O)c2)N1`, > 4 mM (inactive).
In the case of `NC(=O)NC(=O)Nc1ccc(Cl)cc1`, the Kd is > 4 mM (inactive).
Next, `OCc1sccc1-n1cccc1`: > 4 mM (inactive).
